Assay results published in US20110003760A1, “ABNORMAL PROTEIN REMOVING METHOD” (priority 2005, published 2011).

Test system: trypsin-like proteasome activity in three-dimensional human skin model
Test: Proteasome activity in three-dimensional human skin model
Assay type: cell-based
Details: for proteasome activity compared to the sample not given any treatment: without UV irradiation
Procedure: Three-dimensional human skin models are widely used in safety evaluation and effectiveness evaluation as a simulated model of human skin. In this test, TESTSKIN (LSE-high) (Toyobo Co., Ltd.) was used as a three-dimensional human skin model.
A culture medium was added to the outer well of TESTSKIN (LSE-high) and cultured for 24 hours. UVA and UVB were irradiated at 10 J/cm^2 and 100 mJ/cm^2, respectively. UVB was irradiated for 2 minutes at a UV intensity of […] using FL20S-E-30/DMR (Clinical Supply Co., Ltd.) to achieve a total irradiation dose of 100 mJ/cm^2. UV intensity was measured using a UV MONITOR MS-211-I (Eiko Instruments Co., Ltd.).
Thereafter, the culture solution was changed and each agent was added by 100 μl onto the tissues in the assay ring, after which the medium was cultured for 36 hours. Thereafter, the tissues were collected and a tissue extraction solution (50 mM Tris-HCl (pH 7.5), 0.5% (Octylphenoxy) polyethoxyethanol (Sigma-Aldrich Corp.)) was added, and then the mixture was homogenized using a Teflon (registered trademark) homogenizer. The homogenized mixture was centrifuged for 30 minutes at 10,000×G to remove tissue fragments, and then dialyzed overnight in distilled water at 4° C. Thereafter, the dialyzed mixture was freeze-dried to remove water. A tissue extraction solution was added to obtain a ×20 concentrate, and this concentrate was used as a three-dimensional skin model extract sample.
Proteasome activity was measured using a known method (Hayashi, et al., Mechanisms of Aging and Development, Vol. 102, pp. 55-66, 1998) based on cell extract samples.
The specific method is as follows. For the matrix to measure trypsin-like proteasome activity, t-butyloxycarbonyl-L-leucyl-L-arginyl-L-arginyl-L-4-methyl-coumaryl-7-amide (Peptide Institute, Inc.) was used. A cell extract sample containing protein by an equivalent of 10 μg was added to 10.5 μl of a 100 μM matrix solution prepared with 100 mM Tris-HCl (pH 8.0), after which a cell extraction solution was added to a total volume of 50 μl. The obtained solution was treated for 30 minutes at 37° C., after which the fluorescence intensity of the separated 7-amine-4-methyl coumarin was measured at an excitation wavelength (Ex) of 380 nm and absorption waveform (Em) of 440 nm. The result was obtained for each sample type treated with each agent, as an “average ±standard error” calculated from the measured values of three samples.
Based on the above results, it is clear that Bletilla striata extract and silybin promote proteasome activity in a three-dimensional skin model in a manner dependent on the concentration. Accordingly, whether or not a combined use of Bletilla striata extract and silybin would synergistically promote proteasome activity was evaluated. Also, whether or not a combined use of silybin and soybean saponin, a substance known to have an action to promote proteasome activity, would synergistically promote proteasome activity was evaluated. As a result, regardless of whether or not UV light was irradiated, using silybin (3 μM) in combination with Bletilla striata extract (0.1%; final extract concentration of 0.001%), or using silybin (3 μM) in combination with soybean saponin (0.0005%), promoted proteasome activity synergistically compared to when a sample was treated with silybin (3 μM), Bletilla striata extract (0.1%; final extract concentration of 0.001%) or soybean saponin (0.0005%) alone, as far as promotion of proteasome activity in a three-dimensional skin model was concerned (FIG. 12).

[1] = FIG. 11, 3 μM, under UV irradiation
[2] = FIG. 11, 10 μM, under UV irradiation
[3] = FIG. 12, under UV irradiation, silybin 3 μM, Bletilla striata extract 0.1%, soybean saponin 0.0005%, alone or combined

COc1cc(C2Oc3cc([C@H]4Oc5cc(O)cc(O)c5C(=O)[C@@H]4O)ccc3OC2CO)ccc1O (stereo partly drawn) [Silybin, silybin]
proteasome activity compared to the sample not given any treatment under UV irradiation (75%) [1]: 140%
relative proteasome activity level [1]: 105%
proteasome activity compared to the sample not given any treatment (FIG. 11, 3 μM): 145%
proteasome activity compared to the sample not given any treatment under UV irradiation (75%) [2]: 170%
relative proteasome activity level [2]: 128%
proteasome activity compared to the sample not given any treatment (FIG. 11, 10 μM): 178%
proteasome activity compared to the sample not given any treatment under UV irradiation (73%) [3]: 121%
relative proteasome activity level [3]: 88%
proteasome activity compared to the sample not given any treatment (FIG. 12, silybin 3 μM, Bletilla striata extract 0.1%, soybean saponin 0.0005%, alone or combined): 125%
